For test [1], the target named is T1, Sigma non-opioid intracellular receptor 1 (Homo sapiens, UniProt Q99720). Kind of test: Binding affinity for Sigma receptor type 1,using [3H](+)-pentazocine as radioligand.
In another test the target is Sigma 2 receptor. The test is described as follows: Binding affinity of compound was measured towards Sigma receptor type 2 by using [3H]ditolylguanidine as radioligand. Also on record: species or system Cavia porcellus.
Test [2] addresses T1, Sigma non-opioid intracellular receptor 1. The test is described as follows: Selectivity for sigma 2 compared to sigma 1 receptor.
Test [3] can be described thus: Binding affinity for Sigma receptor type 1,using [3H](+)-pentazocine as radioligand.

Structures are written as SMILES. A value given as a limit tells only on which side of the number the result lay.

These results are taken from ChEMBL document CHEMBL1147560, “Thioxanthene-derived analogs as sigma(1) receptor ligands” (Bioorg Med Chem Lett, 2004).

T1 sequence (Q99720 whole entry): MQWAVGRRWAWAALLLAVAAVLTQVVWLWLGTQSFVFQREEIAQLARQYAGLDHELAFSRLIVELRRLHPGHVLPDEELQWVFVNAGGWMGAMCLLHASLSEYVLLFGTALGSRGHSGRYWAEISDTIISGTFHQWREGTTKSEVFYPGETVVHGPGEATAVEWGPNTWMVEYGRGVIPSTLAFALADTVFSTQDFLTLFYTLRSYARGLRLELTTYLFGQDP

Consider `CN1CCN(CCCCc2ccccc2)CC1`, for which the Ki in test [1] worked out at 20 nM; at Sigma 2 receptor, 900 nM. For the same molecule, the Selectivity in test [2] turned out to be 45.
The corresponding values for `CC1CCN(CCC=C(c2ccccc2)c2ccccc2)CC1` are 1.9 nM, 28 nM and 15.
The like results for `CC1CCN(CCCC(c2ccccc2)c2ccccc2)CC1` were, in that order, 1.1 nM, 28 nM and 25.
The like results for `CCN(CC)CCCCC(c1ccccc1)c1ccccc1` were, in that order, 1.4 nM, 51 nM and 36.
For `CN(CCCCC(c1ccccc1)c1ccccc1)CCc1ccccc1`, the Ki amounted to 0.48 nM in test [1] and 32 nM on Sigma 2 receptor. The Selectivity in test [2] worked out at 67.
In test [1], `CCN(CC)CCOC(=O)C(O)(c1ccccc1)c1ccccc1` [BENACTYZINE] displayed a Ki greater than 1000 nM.
As for `CCN(CC)CCCCC(O)(c1ccccc1)c1ccccc1`, the Ki came out at 12 nM in test [1] and 800 nM at Sigma 2 receptor. This molecule yielded a Selectivity in test [2] of 67.
In the case of `CC1CCN(CCCCC(c2ccccc2)c2ccccc2)CC1`, the values for the Ki (in test [1]; at Sigma 2 receptor) were 0.09 nM and 17 nM, respectively. The Selectivity in test [2] worked out at 189.
In turn, `CN(CCCCCc1ccccc1)CCc1ccccc1` displayed a Ki in test [3] of 0.25 nM. In other words, the sub-nanomolar range.
With `CN1CCN(CC/C=C/c2ccccc2)CC1`, the Ki came out at 29 nM in test [1] and 1300 nM at Sigma 2 receptor. In test [2], the Selectivity turned out to be 45.
The corresponding values for `CN(CCCC=C(c1ccccc1)c1ccccc1)CCc1ccccc1` are 0.89 nM, 41 nM and 46.
Turning to `c1ccc(CCNCCCCC(c2ccccc2)c2ccccc2)cc1`, the values for the inhibition constant Ki (in test [1]; on Sigma 2 receptor) were 0.66 nM and 100 nM, respectively. For the same molecule, the Selectivity in test [2] (Cavia porcellus) stood at 152.
Consider `CC1CCN(CCCC=C(c2ccccc2)c2ccccc2)CC1`, for which the affinity on Sigma 2 receptor, expressed as Ki, was 25 nM.
Consider `CC1CCN(CCC=C2c3ccccc3Sc3ccccc32)CC1`, for which the inhibition constant (Ki) came out at 0.8 nM in test [1] and 26 nM on Sigma 2 receptor. Further, the Selectivity in test [2] amounted to 33.
On to `CN1CCN(CC/C=C\c2ccccc2)CC1`, for which the Ki was 29 nM in test [1] and 2540 nM at Sigma 2 receptor. This molecule had a Selectivity in test [2] of 88.
Take `C(CCCNCCc1ccccc1)=C(c1ccccc1)c1ccccc1`: the affinity on Sigma 2 receptor, expressed as Ki, was 142 nM.
Turning to `CC1CCN(CCCCCc2ccccc2)CC1`, the Ki in test [1] was 0.07 nM.
In turn, `CCCC(C(=O)OCCN(CC)CC)(c1ccccc1)c1ccccc1` [PROADIFEN] gave a Ki on Sigma 2 receptor of 1100 nM. This lies in the single-digit micromolar range.

By Ki is commonly meant the equilibrium dissociation constant of an inhibitor or competing ligand from its target.
